Data reported in paper PMC5931096, “A Phase I study of the novel immunomodulatory agent PG545 (pixatimod) in subjects with advanced solid tumours” (British Journal of Cancer, 2018).

Experiment: Phase I dose-escalation: safety, tolerability, DLT and MTD of weekly 1-h IV infusion
Type: in vivo
Conditions: Safety Set
Experimental: The study was an open-label, multicentre, phase 1 dose-escalation study using a 3 + 3 design. The primary objective was to determine the MTD of weekly administered PG545 via IV infusion. Secondary objectives were to characterize safety, tolerability, clinical activity, PK and PD biomarkers.
Patients continued treatment until disease progression, unacceptable toxicity or withdrawal (either voluntarily or investigator-decision).
All patients were assessed for safety, those who received at least one dose of PG545 were evaluated for efficacy. Safety assessment included the incidence of all adverse events (AEs), irrespective of relationship to study drug, according to the National Cancer Institute Common Terminology Criteria for Adverse Events, version 4.0, and the incidence of patients experiencing dose modifications and/or premature discontinuation of study drug. Dose-limiting toxicities (DLTs) used to determine the MTD were defined as occurring during Cycle 1 of treatment only and related to PG545 according to investigator assessment. If no DLT occurred in the first three subjects, the next three-subject cohort was enrolled at the next highest available dose level. If a single DLT occurred, an additional three subjects was enrolled at the same dose level. Dose escalation continued until two subjects of the cohort experienced a DLT; this was defined as the toxic dose level. The dose-escalation phase was completed and MTD determined by reducing the dose to the next lowest dose compared to the toxic dose and expanding this cohort to at least 6 subjects.

With `CC(C)CCC[C@@H](C)[C@H]1CC[C@H]2[C@@H]3CC[C@H]4C[C@@H](O[C@@H]5O[C@H](COS(=O)(=O)O)[C@@H](O[C@H]6O[C@H](COS(=O)(=O)O)[C@@H](O[C@H]7O[C@H](COS(=O)(=O)O)[C@@H](O[C@H]8O[C@H](COS(=O)(=O)O)[C@@H](OS(=O)(=O)O)[C@H](OS(=O)(=O)O)[C@H]8OS(=O)(=O)O)[C@H](OS(=O)(=O)O)[C@H]7OS(=O)(=O)O)[C@H](OS(=O)(=O)O)[C@H]6OS(=O)(=O)O)[C@H](OS(=O)(=O)O)[C@H]5OS(=O)(=O)O)CC[C@]4(C)[C@H]3CC[C@]12C` [PG545] the “TEAE: Blood creatinine increased” value (Mild, Unrelated) was 1 (4.3%), the “TEAE: Chest discomfort” value (Mild, Unrelated) was 1 (4.3%) and the “TEAE: Chest pain” value (Mild, Unrelated) was 2 (8.7%). The “TEAE: Constipation” value (Mild, Unrelated) was 5 (21.7%), the “TEAE: Cough” value (Mild, Unrelated) was 2 (8.7%) and the “TEAE: Decreased appetite” value (Mild, Unrelated) was 1 (4.3%). For the same compound, the “TEAE: Deep vein thrombosis” value (Mild, Unrelated) was 1 (4.3%), the “TEAE: Depression” value (Mild, Unrelated) was 3 (13.0%) and the “TEAE: Diarrhoea” value (Mild, Unrelated) was 3 (13.0%). The “TEAE: Dry mouth” value (Mild, Unrelated) was 1 (4.3%), the “TEAE: Dry skin” value (Mild, Unrelated) was 1 (4.3%) and the “TEAE: Dyspepsia” value (Mild, Unrelated) was 1 (4.3%). For the same compound, the “TEAE: Dyspnoea” value (Mild, Unrelated) was 5 (21.7%), the “TEAE: Fatigue” value (Mild, Unrelated) was 2 (8.7%) and the “TEAE: Fungal infection” value (Mild, Unrelated) was 1 (4.3%). For the same compound, the “TEAE: Gastroesophageal reflux disease” value (Mild, Unrelated) was 1 (4.3%), the “TEAE: Gastrointestinal disorders” value (Mild, Unrelated) was 13 (56.5%) and the “TEAE: General disorders and administration site conditions” value (Mild, Unrelated) was 7 (30.4%). The “TEAE: Haematochezia” value (Mild, Unrelated) was 1 (4.3%), the “TEAE: Headache” value (Mild, Unrelated) was 1 (4.3%) and the “TEAE: Hypercalcaemia” value (Mild, Unrelated) was 1 (4.3%). For the same compound, the “TEAE: Hypertension (second line of this name)” value (Mild, Unrelated) was 1 (4.3%), the “TEAE: Hypokalaemia” value (Mild, Unrelated) was 1 (4.3%) and the “TEAE: Infections and infestations” value (Mild, Unrelated) was 4 (17.4%). The “TEAE: Influenza like illness” value (Mild, Unrelated) was 1 (4.3%), the “TEAE: Insomnia” value (Mild, Unrelated) was 3 (13.0%) and the “TEAE: Investigations” value (Mild, Unrelated) was 3 (13.0%). The “TEAE: Lethargy” value (Mild, Unrelated) was 2 (8.7%), the “TEAE: Malaise” value (Mild, Unrelated) was 1 (4.3%) and the “TEAE: Metabolism and nutritional disorders” value (Mild, Unrelated) was 2 (8.7%). For the same compound, the “TEAE: Mucosal inflammation” value (Mild, Unrelated) was 2 (8.7%), the “TEAE: Musculoskeletal and connective tissue disorders” value (Mild, Unrelated) was 5 (21.7%) and the “TEAE: Musculoskeletal chest pain” value (Mild, Unrelated) was 1 (4.3%). The “TEAE: Nausea” value (Mild, Unrelated) was 3 (13.0%), the “TEAE: Nervous system disorders” value (Mild, Unrelated) was 5 (21.7%) and the “TEAE: Neutrophil count increased” value (Mild, Unrelated) was 1 (4.3%). The “TEAE: Onycholysis” value (Mild, Unrelated) was 1 (4.3%), the “TEAE: Oropharyngeal pain” value (Mild, Unrelated) was 1 (4.3%) and the “TEAE: Pain” value (Mild, Unrelated) was 1 (4.3%). The “TEAE: Pain in extremity” value (Mild, Unrelated) was 2 (8.7%), the “TEAE: Pruritus” value (Mild, Unrelated) was 1 (4.3%) and the “TEAE: Psychiatric disorders” value (Mild, Unrelated) was 5 (21.7%). For the same compound, the “TEAE: Respiratory, thoracic and mediastinal disorders” value (Mild, Unrelated) was 6 (26.1%), the “TEAE: Skin and subcutaneous tissue disorders” value (Mild, Unrelated) was 3 (13.0%) and the “TEAE: Upper respiratory tract infection” value (Mild, Unrelated) was 2 (8.7%). The “TEAE: Vascular disorders” value (Mild, Unrelated) was 2 (8.7%), the “TEAE: Vomiting” value (Mild, Unrelated) was 5 (21.7%) and the “TEAE: Vulvovaginal candidiasis” value (Mild, Unrelated) was 1 (4.3%). For the same compound, the “TEAE: White blood cell count increased” value (Mild, Unrelated) was 1 (4.3%), the “TEAE: aPTT prolonged” value (Mild, Unrelated) was 1 (4.3%) and the “TEAE: At least one event” value (Moderate, Related) was 13 (56.5%). The “TEAE: Chills” value (Moderate, Related) was 2 (8.7%), the “TEAE: Constipation” value (Moderate, Related) was 1 (4.3%) and the “TEAE: Decreased appetite” value (Moderate, Related) was 2 (8.7%). For the same compound, the “TEAE: Dehydration” value (Moderate, Related) was 1 (4.3%), the “TEAE: Diarrhoea” value (Moderate, Related) was 1 (4.3%) and the “TEAE: Dyspnoea” value (Moderate, Related) was 1 (4.3%). For the same compound, the “TEAE: Fall” value (Moderate, Related) was 1 (4.3%), the “TEAE: Fatigue” value (Moderate, Related) was 2 (8.7%) and the “TEAE: GGT increased” value (Moderate, Related) was 1 (4.3%). The “TEAE: Gastrointestinal disorders” value (Moderate, Related) was 4 (17.4%), the “TEAE: General disorders and administration site conditions” value (Moderate, Related) was 4 (17.5%) and the “TEAE: Hypercholesterolaemia” value (Moderate, Related) was 2 (8.7%). The “TEAE: Hyperlipidaemia” value (Moderate, Related) was 1 (4.3%), the “TEAE: Hypertension” value (Moderate, Related) was 2 (8.7%) and the “TEAE: Infusion related reaction” value (Moderate, Related) was 4 (17.4%). For the same compound, the “TEAE: Injury, poisoning and procedural complications” value (Moderate, Related) was 5 (21.7%), the “TEAE: Investigations” value (Moderate, Related) was 1 (4.3%) and the “TEAE: Lethargy” value (Moderate, Related) was 1 (4.3%). The “TEAE: Metabolism and nutritional disorders” value (Moderate, Related) was 4 (17.4%), the “TEAE: Nausea” value (Moderate, Related) was 1 (4.3%) and the “TEAE: Nervous system disorders” value (Moderate, Related) was 1 (4.3%). For the same compound, the “TEAE: Pyrexia” value (Moderate, Related) was 1 (4.3%), the “TEAE: Respiratory, thoracic and mediastinal disorders” value (Moderate, Related) was 1 (4.3%) and the “TEAE: Vascular disorders” value (Moderate, Related) was 2 (8.7%). The “TEAE: Vomiting” value (Moderate, Related) was 1 (4.3%), the “TEAE: AST increased” value (Moderate, Unrelated) was 1 (4.3%) and the “TEAE: Abdominal distension” value (Moderate, Unrelated) was 1 (4.3%). The “TEAE: Abdominal pain” value (Moderate, Unrelated) was 3 (13.0%), the “TEAE: Abdominal pain lower” value (Moderate, Unrelated) was 1 (4.3%) and the “TEAE: Abdominal pain upper” value (Moderate, Unrelated) was 2 (8.7%). The “TEAE: Anaemia” value (Moderate, Unrelated) was 2 (8.7%), the “TEAE: Arthralgia” value (Moderate, Unrelated) was 1 (4.3%) and the “TEAE: At least one event” value (Moderate, Unrelated) was 14 (60.9%). For the same compound, the “TEAE: Back pain” value (Moderate, Unrelated) was 3 (13.0%), the “TEAE: Blood ALP increased” value (Moderate, Unrelated) was 1 (4.3%) and the “TEAE: Blood and lymphatic system disorders” value (Moderate, Unrelated) was 2 (8.7%). For the same compound, the “TEAE: Blood bilirubin increased” value (Moderate, Unrelated) was 1 (4.3%), the “TEAE: Constipation” value (Moderate, Unrelated) was 1 (4.3%) and the “TEAE: Cough” value (Moderate, Unrelated) was 1 (4.3%). For the same compound, the “TEAE: Decreased appetite” value (Moderate, Unrelated) was 3 (13.0%), the “TEAE: Depression” value (Moderate, Unrelated) was 1 (4.3%) and the “TEAE: Diplopia” value (Moderate, Unrelated) was 1 (4.3%). For the same compound, the “TEAE: Dry mouth” value (Moderate, Unrelated) was 1 (4.3%), the “TEAE: Dyspnoea” value (Moderate, Unrelated) was 3 (13.0%) and the “TEAE: Eye disorders” value (Moderate, Unrelated) was 1 (4.3%). For the same compound, the “TEAE: Fatigue” value (Moderate, Unrelated) was 3 (13.0%), the “TEAE: GGT increased” value (Moderate, Unrelated) was 1 (4.3%) and the “TEAE: Gait disturbance” value (Moderate, Unrelated) was 1 (4.3%). For the same compound, the “TEAE: Gastrointestinal disorders” value (Moderate, Unrelated) was 6 (26.1%).
